In brackets after ≈: the same amount, converted by molar mass. Read-outs that look alike come from different tables or passages of the source. One block for each compound: values may come before it.
Assays:
[1] = system: Trichophyton mentagrophytes; assay: In vitro activity against Trichophyton mentagrophytes, MIC by twofold macro-broth dilution (Test Example 1); type: cell-based; settings: Trichophyton mentagrophytes, 7 days at 27° C.
Description: (§1) Minimum inhibitory concentrations (MICs) were determined by the twofold macro-broth dilution method with Sabouraud's glucose broth which constituted with 1% bactopeptone and 4% glucose. To each tube containing 9.8 ml of the broth, 0.1 ml of each testing compound dissolved in DMSO and 0.1 ml of a conidial suspension (1×10^6 conidia/ml) were added. The fungal growth was observed after incubation for 7 days at 27° C. The MIC was determined as the lowest drug concentration which prevented a visible fungal growth.

Trichophyton rubrum = assay: In vitro activity against Trichophyton rubrum, MIC by twofold macro-broth dilution (Test Example 1); type: cell-based
Description: as §1

[2] = system: trichophyton mentagrophytes TIMM 2789; assay: Therapeutic efficacy on experimental tinea pedis in guinea pigs (Test Example 2); type: in vivo
Description: Male Hartley guinea pigs (Japan SLC Inc.) weighing 400 to 620 g were used for the infection study. One side of a paper disc (1.5 mm thick×8 mm diameter) was covered with a piece of aluminum foil while the other side was free to carry the inoculum suspension. The disc was immersed with 50 μl of the inoculum suspension (trichophyton mentagrophytes TIMM 2789, 1×10^8 conidia/ml), and was then fixed on the planta pedis of animal feet with an adhesive elastic tape. The disc was removed on the seventh day postinfection. Each agent dissolved in PEG 400 (0.1 ml/locus) was topically applied to the whole soles of guinea pigs once a day for 3 consecutive days, starting on the 10th day postinfection. Five days after the last treatment, the skin tissue from each planta pedis and the corresponding tarsus of all animals was cut into small blocks (about 2×2 mm). Ten skin blocks obtained from each part of the foot were implanted on a Sabouraud's glucose agar plate containing antibiotics, and were cultured at 27° C. for 14 days. The skin blocks yielding fungal growth were regarded as culture-positive, and the foot (planta pedis plus tarsus) with more than one culture-positive skin block was considered fungus-positive. In addition, the intensity of infection was assessed by the scores based on the number of culture-positive skin blocks. Namely, +10, +9, +8, +7, +6, +5, +4, +3, +2, +1 or 0 was given as the score according to the corresponding number of culture-positive skin blocks out of ten skin blocks studied. Statistical analyses for the rate of fungus-positive feet and the average intensity of infection were assessed by Fisher's exact probably test and Mann-Whitney's U-test, respectively.

Candida albicans = assay: In vitro antifungal activity against Candida albicans, MIC by twofold micro-broth dilution (Test Example 3); type: cell-based; settings: 48 hours at 35° C., pH 7.0, read-out: MIC
Description: MICs were determined by the twofold micro-broth dilution method with RPMI 1640 buffered with morphorino-propanesulfonic acid to a final molarity of 0.165M (pH 7.0). One hundred μl of a yeast cell suspension (1 to 5×10^3 cells/ml) and 100 μl of the compound-containing medium were pipetted into each well flat-bottomed microtiter plates. After incubation for 48 hours at 35° C., the turbidity of each well was measured at 630 nm.

Aspergillus fumigatus = assay: In vitro antifungal activity against Aspergillus fumigatus, MIC by twofold agar dilution (Test Example 4); type: cell-based
Description: MICs were determined by the twofold agar dilution method with casitone agar which constituted with 0.9% bactocasitone, 1% bacto-yeast extract, 2% glucose, 0.1% KH2 PO4, 0.1% Na2 HPO4, 1% Na3 C6 H5 O7 and 1.6% agar. A loopful of each inoculum (1×10^6 conidia/ml) was streaked onto the agar plate containing a compound, and a fungal growth was observed after incubation for 48 hours at 35° C. The MIC was determined as the lowest drug concentration which prevented a visible fungal growth.

[3] = 1% in PEG 400, topical once a day for 3 days, p < 0.01 vs untreated and PEG 400, Compound (A) also p < 0.05 vs 1% Racemic Compound (A)
[4] = 1% in PEG 400, topical once a day for 3 days, p < 0.01 vs untreated and PEG 400 control

MIC ([1]; IFO5466, 168 h, strain IFO 5466): 0.04 µg/mL (≈ 0.125 µM)
MIC ([1]; IFO5809, 168 h, strain IFO 5809): 0.01 µg/mL (≈ 0.0313 µM)
MIC ([1]; IFO5810, 168 h, strain IFO 5810): 0.01 µg/mL (≈ 0.0313 µM)
MIC ([1]; IFO5811, 168 h, strain IFO 5811): 0.04 µg/mL (≈ 0.125 µM)
MIC ([1]; IFO5929, 168 h, strain IFO 5929): 0.02 µg/mL (≈ 0.0625 µM)
MIC ([1]; TIMM1189, 168 h, strain TIMM 1189): 0.04 µg/mL (≈ 0.125 µM)
MIC ([1]; TIMM1814, 168 h, strain TIMM 1814): 0.04 µg/mL (≈ 0.125 µM)
MIC ([1]; TIMM1815, 168 h, strain TIMM 1815): 0.04 µg/mL (≈ 0.125 µM)
MIC ([1]; TIMM1817, 168 h, strain TIMM 1817): 0.04 µg/mL (≈ 0.125 µM)
MIC ([1]; TIMM2789, 168 h, strain TIMM 2789): 0.01 µg/mL (≈ 0.0313 µM)
MIC (Trichophyton rubrum; IFO5467, 168 h, strain IFO 5467, 7 days at 27° C.): 0.005 µg/mL (≈ 0.0156 µM)
MIC (Trichophyton rubrum; IFO5807, 168 h, strain IFO 5807, 7 days at 27° C.): 0.01 µg/mL (≈ 0.0313 µM)
MIC (Trichophyton rubrum; IFO5808, 168 h, strain IFO 5808, 7 days at 27° C.): 0.01 µg/mL (≈ 0.0313 µM)
MIC (Trichophyton rubrum; IFO6203, 168 h, strain IFO 6203, 7 days at 27° C.): 0.005 µg/mL (≈ 0.0156 µM)
MIC (Trichophyton rubrum; IFO6204, 168 h, strain IFO 6204, 7 days at 27° C.): 0.01 µg/mL (≈ 0.0313 µM)
MIC (Trichophyton rubrum; IFO9185, 168 h, strain IFO 9185, 7 days at 27° C.): 0.0025 µg/mL (≈ 0.00782 µM)
MIC (Trichophyton rubrum; TIMM1822, 168 h, strain TIMM 1822, 7 days at 27° C.): 0.005 µg/mL (≈ 0.0156 µM)
MIC (Trichophyton rubrum; TIMM1823, 168 h, strain TIMM 1823, 7 days at 27° C.): 0.01 µg/mL (≈ 0.0313 µM)
MIC (Trichophyton rubrum; TIMM1824, 168 h, strain TIMM 1824, 7 days at 27° C.): 0.005 µg/mL (≈ 0.0156 µM)
MIC (Trichophyton rubrum; TIMM1830, 168 h, strain TIMM 1830, 7 days at 27° C.): 0.0013 µg/mL (≈ 0.00406 µM)
MIC (Candida albicans; IFO0197, strain IFO 0197, 80% inhibition): 0.25 µg/mL (≈ 0.782 µM)
MIC (Candida albicans; IFO0579, strain IFO 0579, 80% inhibition): 0.0625 µg/mL (≈ 0.195 µM)
MIC (Candida albicans; IFO1269, strain IFO 1269, 80% inhibition): 0.125 µg/mL (≈ 0.391 µM)
MIC (Candida albicans; IFO1270, strain IFO 1270, 80% inhibition): 1 µg/mL (≈ 3.13 µM)
MIC (Candida albicans; IFO1385, strain IFO 1385, 80% inhibition): 0.25 µg/mL (≈ 0.782 µM)
MIC (Candida albicans; IFO1386, strain IFO 1386, 80% inhibition): 0.25 µg/mL (≈ 0.782 µM)
MIC (Candida albicans; TIMM3163, strain TIMM 3163, 80% inhibition): 16 µg/mL (≈ 50 µM)
MIC (Candida albicans; TIMM3164, strain TIMM 3164, 80% inhibition): 0.5 µg/mL (≈ 1.56 µM)
MIC (Candida albicans; TIMM3165, strain TIMM 3165, 80% inhibition): 4 µg/mL (≈ 12.5 µM)
MIC (Candida albicans; TIMM3166, strain TIMM 3166, 80% inhibition): 2 µg/mL (≈ 6.25 µM)
MIC (Aspergillus fumigatus; TIMM0063, strain TIMM 0063, 48 hours at 35° C., read-out: MIC): 0.0013 µg/mL (≈ 0.00406 µM)
MIC (Aspergillus fumigatus; TIMM0078, strain TIMM 0078, 48 hours at 35° C., read-out: MIC): 0.0013 µg/mL (≈ 0.00406 µM)
MIC (Aspergillus fumigatus; TIMM1728, strain TIMM 1728, 48 hours at 35° C., read-out: MIC): 0.0013 µg/mL (≈ 0.00406 µM)
MIC (Aspergillus fumigatus; TIMM1767, strain TIMM 1767, 48 hours at 35° C., read-out: MIC): 0.0025 µg/mL (≈ 0.00782 µM)
SMILES: N#C/C(=C1/SCC(c2ccccc2Cl)S1)n1ccnc1 (racemic) [Racemic Compound (A), (±)-(E)-[4-(2-chlorophenyl)-1,3-dithiolan-2-ylidene]-1-imidazolylacetonitrile]
Fungus-positive rate (%) [2, 3]: 40%
Fungus-positive rate: The number of positive feet/The total number of feet [2, 3]: 4/10 and four feet among the inoculated ten feet
Average intensity of infection, planta pedis (score 0 to +10) [2, 4]: +0.6
Average intensity of infection, tarsus (score 0 to +10) [2, 4]: +0.2
curative effect (in words) ([2]; 1% treated group): significant curative effect

SMILES: CCC(C)n1ncn(-c2ccc(N3CCN(c4ccc(OC[C@H]5CO[C@](Cn6cncn6)(c6ccc(Cl)cc6Cl)O5)cc4)CC3)cc2)c1=O (relative stereo) [ITZ, (±)1-sec-Butyl-4-[p[4[p[[2R*,4S*2-(2,4-dichlorophenyl)-2-(1H-1,2,4-trizol-1-ylmethyl)-1,3-dioxolan-4-yl]methoxy]phenyl1-piperazinyl]phenyl.DELTA^21,2,4-triazolin-5-one]
MIC (Aspergillus fumigatus; TIMM0063, 48 h): 0.04 µg/mL (≈ 0.0567 µM)
MIC (Aspergillus fumigatus; TIMM0078, 48 h): 0.04 µg/mL (≈ 0.0567 µM)
MIC (Aspergillus fumigatus; TIMM1728, 48 h): 0.08 µg/mL (≈ 0.113 µM)
MIC (Aspergillus fumigatus; TIMM1767, 48 h): 0.08 µg/mL (≈ 0.113 µM)

Source: patent US5900488A, “Method for treating mycosis using imidazolylacetonitrile derivatives” (Nihon Nohyaku Co., Ltd., priority 1995, dated 1999)
